For data set [1], the target named is T1, JAK1 (Homo sapiens, UniProt P23458). The data set can be described thus: JAK1 biochemical test (33P-ATP filter binding kinase assay). The conditions noted are these: room temperature, 2 hours. The method, then:
(§1) The tests were conducted by Reaction Biology Corp, Malvern, PA (Anastassiadis et al. Nat Biotechnol. 2011; 29(11):1039-45). The step is briefly described as follows.
(§2) Basic reaction buffer: 20 mM Hepes (pH 7.5), 10 mM MgCl2, 1 mM EGTA, 0.02% Brij35, 0.02 mg/ml BSA, 0.1 mM Na3VO4, 2 mM DTT and 1% DMSO. The required cofactor was added to each kinase reaction respectively.
(§3) • 1. Preparing the designated substrate in the newly prepared basic reaction buffer; • 2. Transferring the required cofactor to the above matrix solution; • 3. Transferring the designated kinase to the substrate solution and mixing well slightly; • 4. Transferring a compound of formulae I-III in DMSO to the kinase reaction mixture with Acoustic technique (Echo550; nanoliter range), culturing for 20 minutes at room temperature; • 5. Introducing ^33P-ATP (specific activity: 10 μCi/μl) to the reaction mixture to trigger a reaction; • 6. Culturing at room temperature and conducting a kinase reaction for 2 hours; • 7. Plotting the reaction on P81 ion exchange paper; • 8. Testing the kinase activity with a filter binding assay.

A further data set addresses JAK2 (Homo sapiens, UniProt O60674). The experiment in a line: JAK2 biochemical test (33P-ATP filter binding kinase assay). Conditions: room temperature, 2 hours. The method, then: as §1, §2, §3
For the next data set, the system named is TYK2/JAK1/JAK2. The experiment in a line: TYK2/JAK1/JAK2 biochemical tests, comparative summary. Conditions: for fold less potent TYK2/JAK1/JAK2 inhibitor compared to analogs of Formula II (example 4) and Formula III (example 18): compared with examples 4 and 18. The method, then:
as §1, §2, §3

For a further data set, the target named is TYK2 (Homo sapiens, UniProt P29597). The experiment in a line: TYK2 biochemical test (33P-ATP filter binding kinase assay). Conditions: room temperature, 2 hours. How it is done: as §1, §2, §3
The target in data set [2] is T1, JAK1. The data set can be described thus: JAK1 cellular ELISA assay using PBMC cells (IL-6 stimulated STAT3 phosphorylation). It counts as cell-based. Conditions: IL-6 100 ng/ml, 25 min. How it is done: Purpose: test cellular JAK1 activity using the IL-6 stimulated STAT3 phosphorylation assay in PBMC cells.
• 1. Plate PBMC cells to 96-well plate at density of ~300,000 cell/well; • 2. Add different concentrations of test article to wells, maintain in incubator at 37° C. and 5% CO2 for 1 hour; • 3. Add IL-6 (final concentration: 100 ng/ml) to stimulate for 25 min in the above incubator; • 4. After stimulation, transfer the suspension to 1.5 mL tube, centrifuge at 200 g for 5 min, collect cells, add 100 μL 1× lysate, lyse on ice for 1 hour; • 5. Centrifuge at 4° C. and 12000 rpm for 10 min, take the supernatant and analyze according to instructions of the ELISA kit.

The conditions of data set [3]: approved oral agents; topical formulation of ruxolitinib; cited from earlier work.

The values below come from US20260347348A1, “JAK1/JAK2/TYK2 Inhibitors For Topical Treatment of Dermatological Diseases” (Hangzhou Highlightll Pharmaceutical Co., Ltd, priority 2022, published 2026).

Sequence of JAK2 (O60674 whole entry): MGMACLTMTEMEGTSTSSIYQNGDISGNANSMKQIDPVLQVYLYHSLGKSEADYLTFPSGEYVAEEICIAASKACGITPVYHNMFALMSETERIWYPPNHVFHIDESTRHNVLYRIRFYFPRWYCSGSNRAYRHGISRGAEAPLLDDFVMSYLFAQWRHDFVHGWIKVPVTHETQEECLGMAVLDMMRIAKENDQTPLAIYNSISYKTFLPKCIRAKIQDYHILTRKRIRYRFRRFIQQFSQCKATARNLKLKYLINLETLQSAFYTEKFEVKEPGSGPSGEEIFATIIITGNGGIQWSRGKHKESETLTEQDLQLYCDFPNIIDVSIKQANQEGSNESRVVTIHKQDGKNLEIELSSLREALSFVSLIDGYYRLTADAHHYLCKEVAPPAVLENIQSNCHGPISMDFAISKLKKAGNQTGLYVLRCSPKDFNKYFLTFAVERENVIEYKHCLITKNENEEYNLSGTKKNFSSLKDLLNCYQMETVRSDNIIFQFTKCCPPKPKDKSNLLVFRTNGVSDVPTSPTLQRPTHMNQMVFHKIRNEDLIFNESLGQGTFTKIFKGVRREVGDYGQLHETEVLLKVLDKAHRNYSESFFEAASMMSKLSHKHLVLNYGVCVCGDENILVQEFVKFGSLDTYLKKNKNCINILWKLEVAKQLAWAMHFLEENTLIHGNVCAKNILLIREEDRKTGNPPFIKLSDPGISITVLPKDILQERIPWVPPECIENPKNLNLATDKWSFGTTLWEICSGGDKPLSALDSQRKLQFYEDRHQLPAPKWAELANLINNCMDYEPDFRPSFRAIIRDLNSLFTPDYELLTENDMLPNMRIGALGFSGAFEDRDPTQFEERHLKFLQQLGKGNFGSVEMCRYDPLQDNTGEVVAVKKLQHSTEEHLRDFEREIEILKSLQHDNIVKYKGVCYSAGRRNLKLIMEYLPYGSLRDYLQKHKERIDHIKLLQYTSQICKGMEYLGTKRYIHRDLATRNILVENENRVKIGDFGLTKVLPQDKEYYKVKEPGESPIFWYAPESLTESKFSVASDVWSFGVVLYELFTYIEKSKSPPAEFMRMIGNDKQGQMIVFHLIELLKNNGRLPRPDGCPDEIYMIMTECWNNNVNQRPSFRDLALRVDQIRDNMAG
T1 sequence (P23458 whole entry): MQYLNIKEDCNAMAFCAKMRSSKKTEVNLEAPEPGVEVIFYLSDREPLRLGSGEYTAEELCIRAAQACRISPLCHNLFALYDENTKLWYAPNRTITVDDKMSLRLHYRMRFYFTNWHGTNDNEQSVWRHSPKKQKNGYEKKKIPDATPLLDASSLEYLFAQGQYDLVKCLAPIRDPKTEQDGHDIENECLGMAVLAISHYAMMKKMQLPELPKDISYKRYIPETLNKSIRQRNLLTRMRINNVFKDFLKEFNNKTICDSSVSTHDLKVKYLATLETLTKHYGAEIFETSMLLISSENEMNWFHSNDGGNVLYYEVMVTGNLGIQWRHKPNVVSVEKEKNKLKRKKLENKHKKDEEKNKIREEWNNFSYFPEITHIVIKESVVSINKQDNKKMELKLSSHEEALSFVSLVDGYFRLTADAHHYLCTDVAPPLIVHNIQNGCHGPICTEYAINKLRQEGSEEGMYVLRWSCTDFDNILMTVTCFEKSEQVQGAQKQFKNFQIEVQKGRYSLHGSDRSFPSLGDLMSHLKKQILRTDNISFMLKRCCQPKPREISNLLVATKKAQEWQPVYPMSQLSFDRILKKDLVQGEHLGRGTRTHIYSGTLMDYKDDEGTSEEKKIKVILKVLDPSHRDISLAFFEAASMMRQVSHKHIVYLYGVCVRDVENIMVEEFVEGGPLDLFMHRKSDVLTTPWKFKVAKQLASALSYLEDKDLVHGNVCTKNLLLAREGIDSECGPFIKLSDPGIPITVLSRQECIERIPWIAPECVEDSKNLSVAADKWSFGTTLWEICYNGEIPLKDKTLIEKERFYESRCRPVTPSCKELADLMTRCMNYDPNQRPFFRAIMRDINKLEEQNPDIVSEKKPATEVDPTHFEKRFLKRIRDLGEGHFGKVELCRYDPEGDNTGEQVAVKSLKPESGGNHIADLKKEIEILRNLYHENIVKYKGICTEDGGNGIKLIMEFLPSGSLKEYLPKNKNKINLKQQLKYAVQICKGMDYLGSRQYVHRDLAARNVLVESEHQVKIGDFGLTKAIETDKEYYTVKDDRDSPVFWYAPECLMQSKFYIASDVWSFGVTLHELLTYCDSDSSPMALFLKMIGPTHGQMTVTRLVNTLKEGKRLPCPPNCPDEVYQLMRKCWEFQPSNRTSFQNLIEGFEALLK
Sequence of TYK2 (P29597 whole entry): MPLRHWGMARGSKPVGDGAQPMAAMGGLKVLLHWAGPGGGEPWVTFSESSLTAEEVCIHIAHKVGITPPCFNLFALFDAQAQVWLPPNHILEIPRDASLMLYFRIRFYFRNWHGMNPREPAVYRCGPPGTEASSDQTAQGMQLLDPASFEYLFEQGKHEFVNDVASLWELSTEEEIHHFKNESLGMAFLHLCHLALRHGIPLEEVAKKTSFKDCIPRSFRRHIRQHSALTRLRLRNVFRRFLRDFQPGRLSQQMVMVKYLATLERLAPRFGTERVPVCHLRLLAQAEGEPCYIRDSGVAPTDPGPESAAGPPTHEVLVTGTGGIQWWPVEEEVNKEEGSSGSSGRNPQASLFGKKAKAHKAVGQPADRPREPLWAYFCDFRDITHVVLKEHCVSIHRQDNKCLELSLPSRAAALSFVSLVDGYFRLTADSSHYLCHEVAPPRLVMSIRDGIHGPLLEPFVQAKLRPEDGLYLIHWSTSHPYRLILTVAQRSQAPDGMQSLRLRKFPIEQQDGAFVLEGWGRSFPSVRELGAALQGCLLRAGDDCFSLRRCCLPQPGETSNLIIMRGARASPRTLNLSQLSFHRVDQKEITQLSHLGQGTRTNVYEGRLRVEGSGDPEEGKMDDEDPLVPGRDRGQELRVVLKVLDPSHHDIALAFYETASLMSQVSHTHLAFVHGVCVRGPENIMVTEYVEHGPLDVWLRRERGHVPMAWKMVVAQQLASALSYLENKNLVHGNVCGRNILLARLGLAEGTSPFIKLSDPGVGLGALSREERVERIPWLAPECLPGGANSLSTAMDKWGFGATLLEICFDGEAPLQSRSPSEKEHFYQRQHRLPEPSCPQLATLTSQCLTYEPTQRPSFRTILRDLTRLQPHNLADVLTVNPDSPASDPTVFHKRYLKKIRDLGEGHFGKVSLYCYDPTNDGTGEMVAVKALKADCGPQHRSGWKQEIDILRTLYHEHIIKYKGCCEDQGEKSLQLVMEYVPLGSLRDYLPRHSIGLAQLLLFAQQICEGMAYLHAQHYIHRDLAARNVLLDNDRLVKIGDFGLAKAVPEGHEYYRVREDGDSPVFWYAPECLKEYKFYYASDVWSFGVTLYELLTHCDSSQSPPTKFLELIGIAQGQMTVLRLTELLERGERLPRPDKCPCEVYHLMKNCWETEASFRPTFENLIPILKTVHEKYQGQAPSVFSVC

Consider `Cc1cnc(Nc2cnn(CC3COC3)c2)nc1-c1cnn([C@H](CC#N)C2CCCC2)c1` [Compound 9, (R)-3-cyclopentyl-3-(4-(5-methyl-2-((1-(oxetan-3-ylmethyl)-1H-pyrazol-4-yl)amino)pyrimidin-4-yl)-1H-pyrazol-1-yl) propanenitrile], for which the half-inhibitory concentration (IC50) at JAK1 [1], on JAK2 and on TYK2 was less than 1 nM each time. Also, in the data set with TYK2/JAK1/JAK2, the “TYK2/JAK1/JAK2 inhibition (in words)” value is reported as “potent TYK2/JAK1/JAK2 inhibitors”.
`CCS(=O)(=O)N1CC(CC#N)(n2cc(-c3nc(Nc4cn(C)nn4)ncc3C)cn2)C1` [Compound 19, 2-(1-(ethylsulfonyl)-3-(4-(5-methyl-2-((1-methyl-1H-1,2,3-triazol-4-yl)amino)pyrimidin-4-yl)-1H-pyrazol-1-yl)azetidin-3-yl)acetonitrile, reference compound]: the half-inhibitory concentration (IC50) on JAK1 [1], at JAK2 and at TYK2 was more than 10 nM throughout. In addition, the “fold less potent than its 2-((pyrazol-4-yl)amino) analog (example 18)” value with TYK2/JAK1/JAK2 (compared with example 18) is more than 10 ×.
Take `CCCS(=O)(=O)N[C@H]1C[C@@H](N(C)c2nc(Nc3cnn(C)c3)ncc2C)C1` [Compound 20, N-((1s,3s)-3-(methyl(5-methyl-2-((1-methyl-1H-pyrazol-4-yl)amino)pyrimidin-4-yl)amino)cyclobutyl)propane-1-sulfonamide, reference compound]: the 50% inhibitory concentration (IC50) at JAK1 [1], at JAK2 and on TYK2 was more than 10 nM each time. In the data set with TYK2/JAK1/JAK2, the “fold less potent TYK2/JAK1/JAK2 inhibitor compared to analogs of Formula II (example 4) and Formula III (example 18)” value is more than 10 ×.
In the case of `CNS(=O)(=O)C[C@H]1CC[C@H](N(C)c2nc(Nc3cnn(C)c3)ncc2C)CC1` [Compound 21, N-methyl-1-((1r,4r)-4-(methyl(5-methyl-2-((1-methyl-1H-pyrazol-4-yl)amino)pyrimidin-4-yl)amino)cyclohexyl)methanesulfonamide, reference compound], the half-inhibitory concentration (IC50) on JAK1 [1], on JAK2 and at TYK2 was more than 100 nM in each case. For the same compound, the “fold less potent TYK2/JAK1/JAK2 inhibitor compared to analogs of Formula II (example 4) and Formula III (example 18)” value with TYK2/JAK1/JAK2 is recorded as more than 100 ×.
In the case of `Cc1cnc(Nc2ccc3ncn(C)c3c2)nc1-c1cnn([C@H](CC#N)C2CCCC2)c1` [Compound 23, (R)-3-cyclopentyl-3-(4-(5-methyl-2-((1-methyl-1H-benzo[d]imidazol-6-yl)amino)pyrimidin-4-yl)-1H-pyrazol-1-yl)propanenitrile], the IC50 on JAK1 [1] was less than 1 nM; at JAK2, less than 1 nM; on JAK1 [2], less than 500 nM; on TYK2, less than 1 nM. The “TYK2/JAK1/JAK2 inhibition (in words)” value in the data set on TYK2/JAK1/JAK2 is on record as “potent TYK2/JAK1/JAK2 inhibitors”.
For `Cc1cnc(Nc2cnn(CCO)c2)nc1-c1cnn([C@H](CC#N)C2CCCC2)c1` [Compound 24, (R)-3-cyclopentyl-3-(4-(2-((1-(2-hydroxyethyl)-1H-pyrazol-4-yl)amino)-5-methylpyrimidin-4-yl)-1H-pyrazol-1-yl)propanenitrile], the IC50 is less than 1 nM on JAK1 [1], less than 1 nM on JAK2, less than 500 nM at JAK1 [2] and less than 1 nM at TYK2. The “TYK2/JAK1/JAK2 inhibition (in words)” value in the data set on TYK2/JAK1/JAK2 is given as “potent TYK2/JAK1/JAK2 inhibitors”.
Turning to `CCCS(=O)(=O)N[C@H]1C[C@@H](N(C)c2ncnc3[nH]ccc23)C1` [abrocitinib], the “black box warnings / risks” value in data set [3] was “black box warnings of risks such as serious infections, non-melanoma skin cancers, thrombosis, and thrombocytopenia”.
As for `CC[C@@H]1CN(C(=O)NCC(F)(F)F)C[C@@H]1c1cnc2cnc3[nH]ccc3n12` [upadacitinib], the “black box warnings / risks” value in data set [3] was “black box warnings of risks such as serious infections, non-melanoma skin cancers, thrombosis, and thrombocytopenia”.

A word on the IC50: it is the concentration that gives 50% inhibition. A high value points to lower potency.
